Like-named read-outs stand apart in the source and are kept apart here.
How the values were obtained:
[1] = system: AhR-mediated cyp1a1 expression; assay: AhR-mediated cyp1a1 expression in epithelial colonic organoids
Description: In FIG. 7A, the metabolites (3-indole acetic acid, 3-methylindole, indole, indoleacrylate, 3-indole butyric acid, and indolepropionic acid, IPA) were added at three different concentrations (50, 100, and 200 μM), with increasing concentrations from right to left. Untreated epithelial organoids (Untd) were used as a negative control. In FIG. 7B, supernatants were collected from cultures containing different bacteria (Clostridium sporogenes 1, Clostridium sporogenes 2, Peptostreptococcus stomatis, Clostridium glycolicum, Bacteroides sp. 4 1 36) and were provided to the epithelial organoids at two different concentrations (5% and 2% final concentration), with the left bar corresponding to the higher concentration. The SCFAs and tryptophan metabolites present in each supernatant (from FIGS. 17 and 18) are indicated. IPA: indolepropionic acid; IAcryl: Indole acrylate; 3Mind: 3-methylindole; I3Carb: indole-3-carbinol; C3: propionate; C4: butyrate; C5: valerate; C6: hexanoate; BCFA: branch chain fatty acids.
AhR activation is reportedly associated with strengthening of the intestinal epithelial barrier and mucosal homeostasis in the intestine by inducing broad changes in gene expression. […] An increase in Cyp1a1 expression is considered to be a specific measure of AhR-mediated gene expression.

[2] = system: TNF-α-driven IL-8 secretion by HT29 epithelial cells; assay: Anti-inflammatory assay in IECs (TNF-α-driven IL-8 secretion); assay type: cell-based, human; settings: 1 hour pre-treatment
[3] = system: primary human colon epithelial cell monolayer; assay: Primary epithelial cell monolayer barrier integrity assay (IFN-γ, FITC-dextran); settings: 5 mM
Description: The assays were performed using a primary epithelial cell monolayer barrier integrity assay. […] The addition of interferon-gamma (IFN-γ) disrupts the tight junctions of the epithelial monolayer and induces apoptosis of epithelial cells. The leakiness of the membrane can be assessed by adding FITC-dextran to the apical side of the apparatus and measuring how rapidly it can pass to the basolateral compartment. A leaky monolayer will allow FITC-dextran to the basal side of the apparatus more quickly than a monolayer with an intact monolayer.
Briefly, the barrier integrity assay was conducted as follows. Primary human colon organoid cultures established from isolated colon crypts were grown and expanded in Matrigel® (Corning) and 50% L-cell conditioned medium containing Wnt3a, R-spondin 3 and Noggin (L-WRN) as described by VanDussen et al. containing 10 uM Y-27632 and 10 uM SB43152 (Gut 64:911-920, 2015). […] After the 48-hour incubation, colonic epithelial monolayer permeability was assessed by adding 10 μL of 10 ng/ml FITC-Dextran (4 kDa, Sigma) to the apical interface, the organoids were incubated for 1 hour and then 100 μL of medium was collected from the basolateral compartment of each transwell and transferred to a 96 well plate for fluorescence detection.

[4] = system: clinical remission of ulcerative colitis; assay type: in vivo, human; settings: UC patients treated with HHSP
[5] = system: HDAC enzymes (HeLa nuclear extract); assay: HDAC inhibition assay (HDAC-Glo I/II, HeLa nuclear extract); assay type: biochemical; settings: for HDAC Inhibition in any C source (25/18% cutoff): single strain supernatants, PY medium with one of seven C sources
[6] = GC-MS of SCFAs, MCFAs, BCFAs and tryptophan metabolites in bacterial supernatants; settings: single strain supernatants
Text: FIG. 18 provides a table listing bacterial species and the short chain fatty acids (SCFAs), medium chain fatty acids (MCFAs), and branched chain fatty acids (BCFAs) produced by each of the species. […] The limit of detection for each of the fatty acids is provided in the row labeled “Limit of Detection (LOD).” The SCFAs measured included: acetic acid, propanoic acid, and butanoic acid. The MCFAs measured included: pentanoic acid, hexanoic acid, heptanoic acid. The BCFAs measured included: 2-methyl-propanopic acid, 3-methyl-butanoic acid, and 4-methyl-pentaoic acid.
FIG. 19 provides a table listing bacterial species and tryptophan metabolites produced by the species. […] The limit of detection for each of the fatty acids is provided in the row labeled “Limit of Detection (LOD).” The tryptophan metabolites measured included: indole, 3-methylindole, indol-3-propanoic acid, indole-3-butyric acid, 3-indoleacrylic acid, tryptamine, indole-3-acetic acid, 3-indole-glycoxylic acid, 2-picolinic acid, and 5-hydroxytryptamine.
As described supra, certain tryptophan (Trp) metabolites were associated with remission in patients treated with an HHSP. […] The presence of the tryptophan metabolites was determined using a colorimetric assay for detection of indolic compounds (Indole Reagent, Anaerob Systems). […]

[7] = intestinal epithelial organoids

Row | Compound | HDAC cluster assignment [5] | HDAC Inhibition in any C source (25/18% cutoff) [5] | other results
1 | O=C(O)Cc1c[nH]c2ccccc12 [3-indole acetic acid] |  |  | AhR-mediated cyp1a1 expression [1, 7]: induced AhR-mediated cyp1a1 expression
2 | Cc1c[nH]c2ccccc12 [3-methylindole] |  |  | AhR-mediated cyp1a1 expression ([1]; human): induced AhR-mediated cyp1a1 expression
3 | CC(=O)O [acetate] |  |  | TNF-α-dependent IL-8 secretion by IECs [2]: reduced levels of TNF-α-dependent IL-8 secretion
4 | CCCC(=O)O [butyrate] |  |  | decrease of permeability [3]: 50%
5 | c1ccc2[nH]ccc2c1 [indole] |  |  | AhR-mediated cyp1a1 expression [1, 7]: induced AhR-mediated cyp1a1 expression
6 | O=C(O)/C=C/c1c[nH]c2ccccc12 [indoleacrylate] |  |  | AhR-mediated cyp1a1 expression [1, 7]: induced AhR-mediated cyp1a1 expression
7 | CCC(=O)O [propionate] |  |  | TNF-α-dependent IL-8 secretion by IECs [2]: reduced levels of TNF-α-dependent IL-8 secretion
8 | Clostridium bolteae |  |  | Associated Clinical Outcome [4]: Remitter
9 | Clostridium clostridioforme | 6 | 1 (If a strain exhibits HDACi activity of at least 0.25 in any nutrient, or 0.18 in fucose, it is considered to have HDACi activity and it is marked with “1”) | 
10 | Clostridium disporicum | 0 | 1 (If a strain exhibits HDACi activity of at least 0.25 in any nutrient, or 0.18 in fucose, it is considered to have HDACi activity and it is marked with “1”) | 
11 | Clostridium glycolicum |  |  | hexanoate production [6]: Hexanoate producing
12 | Clostridium mayombei | 2 | 1 (If a strain exhibits HDACi activity of at least 0.25 in any nutrient, or 0.18 in fucose, it is considered to have HDACi activity and it is marked with “1”) | 
13 | Clostridium sp 7 2 43FAA |  | 1 (If a strain exhibits HDACi activity of at least 0.25 in any nutrient, or 0.18 in fucose, it is considered to have HDACi activity and it is marked with “1”) | HDAC cluster assignment ([5]; pattern of HDAC inhibition across nutrient sources): 5
14 | Clostridium symbiosum |  |  | Associated Clinical Outcome [4]: Remitter
15 | Clostridium tertium | 5 | 1 (If a strain exhibits HDACi activity of at least 0.25 in any nutrient, or 0.18 in fucose, it is considered to have HDACi activity and it is marked with “1”) | 
16 | Parabacteroides distasonis | 3 | 1 (If a strain exhibits HDACi activity of at least 0.25 in any nutrient, or 0.18 in fucose, it is considered to have HDACi activity and it is marked with “1”) | 

Reference: patent US20230125810A1, “DESIGNED BACTERIAL COMPOSITIONS AND USES THEREOF” (Seres Therapeutics, Inc., priority 2019, published 2023)
